Data taken from patent US8580843B2, “Use of diindolylmethane (DIM) compounds and derivatives as neuroprotective agents” (Colorado State University Research Foundation, priority 2008, dated 2013).

Key:
[1] = test system: NOS2 protein; test: Immunoblotting of NOS2 protein in astrocytes exposed to MPTP and TNF-α/IFN-γ; format: cell-based, mouse; settings: FIG. 7(C), concentration not given
From the text: Primary Cell Isolation. Cortical astrocytes were isolated from day-1 old C57B1/6 or transgenic mouse pups according to procedures described previously (Aschner and Kimelberg, 1991), and purity confirmed through immunofluorescent staining using antibodies against GFAP and Iba1. Briefly, pups were euthanized by decapitation under isofluorane anesthesia and cortices (astrocytes) or striatum (neurons) rapidly dissected out, and meninges removed. Tissue was subject to digestion with Dispase (1.5 U/ml), and selection of astrocytes was performed by complete media change 24 hrs after plating to remove non-astroglial cell types by serum shock. This method routinely results in cultures that are approximately 99% pure astrocytes, with less than 1% contaminating microglial cells (Supplementary FIG. 1). Astrocyte cultures were maintained at 37° C. and 5% CO2 in minimum essential media supplemented with 10% heat-inactivated fetal bovine serum and a penicillin (0.001 mg/ml), streptomycin (0.002 mg/ml), and neomycin (0.001) antibiotic cocktail. Cell media was changed 24 hrs prior to all treatments. […]
Western Blotting. […] Protein was quantified using the BCA assay (Pierce, Rockford Ill.), and 20 μg of protein were separated by standard SDS-PAGE using a 6% slab gel (BioRad, Hercules Calif.) followed by semi-dry transfer to polyvinylidene fluoride (PVDF) membrane (Pall Corp., Pensacola, Fla.). […]

[2] = test system: NF-kB-regulated genes; test: qPCR array analysis of NF-kB-regulated transcripts in primary astrocytes; format: cell-based; settings: astrocytes + MPTP and TNF/IFN; DIM-C-pPhOCH3 1 uM, DIM-C-pPhtBu concentration not given; FIG. 11(A)
Protocol: Expression of inflammatory genes in astrocytes is largely regulated through the NF-kB signaling pathway. Primary cultured astrocytes were treated with MPTP and TNF/IFN in the presence or absence DIM-C-pPhOCH3 (DIMS, 1 uM), DIM-C-pPhtBu (DIM4), rosiglitazone (Ro, 10 uM), or vehicle (DMSO) and subjected to qPCR array analysis of NF-kB-regulated transcripts (Superarray Biosciences). […] (n=4 biological replicates)

[3] = test system: proximal NF-κB enhancer element of the Nos2 promoter; test: Chromatin immunoprecipitation (ChIP) at the proximal NF-κB enhancer element of the Nos2 promoter in astrocytes; format: cell-based, mouse; settings: 10 μM co-treatment; FIG. 5
Protocol: Chromatin Immunoprecipitation (ChIP). ChIP procedures were adapted from a previously published report (Weinmann and Farnham, 2002) and optimized for primary astrocytes according to recent studies from our laboratory. Astrocytes were grown to confluence in 10 cm plates (Approx. 8.8×10^6 cells) and were treated for 3 hours with MPTP (10 μM), TNF-α (10 pg/ml) and IFN-γ (1 ng/ml) with or without DIM-C-pPhtBu (10 μM), rosiglitazone (10 μM) or a DMSO vehicle control for 3 hours prior to analysis. DNA was sheared into approximate 500 bp fragments by three ten-second pulses using a Tekmar Sonic Disrupter (Tekmar Co., Cincinnati, Ohio) set at 30% output, followed by collection of 10% input controls and addition of 2 μg precipitating antibody. Immune complexes were allowed to form overnight at 4° C. with gentle agitation, followed by the addition of protein-G magnetic beads (Active Motif, Carlsbad, Calif.) for an additional 90 min. Immunopurified DNA was isolated via phenol/chloroform extraction and subject to PCR using primers designed around the proximal murine Nos2 NF-κB binding region (Xie et al., 1992) (forward: 5′-ATGGCCTTGCATGAGGATACACCA-3′ Chromatin Immunoprecipitation (ChIP). ChIP procedures were adapted from a previously published report (Weinmann and Farnham, 2002) and optimized for primary astrocytes according to recent studies from our laboratory. Astrocytes were grown to confluence in 10 cm plates (Approx. 8.8×10^6 cells) and were treated for 3 hours with MPTP (10 μM), TNF-α (10 pg/ml) and IFN-γ (1 ng/ml) with or without DIM-C-pPhtBu (10 μM), rosiglitazone (10 μM) or a DMSO vehicle control for 3 hours prior to analysis. DNA was sheared into approximate 500 bp fragments by three ten-second pulses using a Tekmar Sonic Disrupter (Tekmar Co., Cincinnati, Ohio) set at 30% output, followed by collection of 10% input controls and addition of 2 μg precipitating antibody. Immune complexes were allowed to form overnight at 4° C. with gentle agitation, followed by the addition of protein-G magnetic beads (Active Motif, Carlsbad, Calif.) for an additional 90 min. Immunopurified DNA was isolated via phenol/chloroform extraction and subject to PCR using primers designed around the proximal murine Nos2 NF-κB binding region (Xie et al., 1992) (forward: 5′-ATGGCCTTGCATGAGGATACACCA-3′(SEQ ID NO:5); reverse: 5′-GAGTCTCAGTCTTCAACTCCCTGT-3′(SEQ ID NO:6)). Amplicons were separated by 2% agarose gel electrophoresis and stained with ethidium bromide.
To determine the mechanism by which DIM-C-pPhtBu modulates NF-κB activity, the ChIP assay was used to identify specific DNA-protein interactions at the proximal NF-κB enhancer element (-86 to -76) of the Nos2 promoter.
Primary cultured astrocytes were treated with MPTP and TNF/IFN in the presence or absence of DIM-C-pPhOCH3 (DIMS, 1 uM) or rosiglitazone (Ro, 10 uM) and cellular lysates subjected to chromatin immunoprecipitation (ChIP) assay for HDAC3 association with the proximal NF-kB binding site in the Nos2 promoter. HDAC3 is a transcriptional co-repressor of Nos2 gene expression.

Row | Binding of p65 to the Nos2 promoter induced by MPTP and cytokines [3] | Structure (SMILES) | Suppression of NOS2 protein expression [1] | Neuroinflammatory gene expression (TNF Receptor, Toll Receptor, Interleukin 1beta) [2] | Recruitment of PPAR-γ to the proximal NF-κB response element [3] | Stabilization of NCoR2 at the proximal NF-κB response element [3]
1 | – | COc1ccc(C(c2c[nH]c3ccccc23)c2c[nH]c3ccccc23)cc1 [DIM-C-pPhOCH3, 1,1-bis(3′-indolyl)-1-(p-methoxyphenyl)methane] | suppression of NOS2 protein expression | suppressed neuroinflammatory gene expression | – | –
2 | blocked | CC(C)(C)c1ccc(C(c2c[nH]c3ccccc23)c2c[nH]c3ccccc23)cc1 [DIM-C-pPhtBu, 1,1-bis(3′-indolyl)-1-(p-t-butylphenyl)methane] | – | suppressed neuroinflammatory gene expression | did not recruit PPAR-γ | nor did it stabilize NCoR2
3 | – | CN(CCOc1ccc(CC2SC(=O)NC2=O)cc1)c1ccccn1 (stereo not drawn) [rosiglitazone, 5-((4-(2-(methyl-2-pyridinylamino)ethoxy)phenyl)methyl)-2,4-thiazolidinedione, reference compound] | suppression of NOS2 protein expression | – | recruited PPAR-γ | prevented degradation of NCoR2
